Holding throughout (experiment): inhibition of tumour cell growth, NCI panel, 48 h
In assay [1] the test system is PC-3.
Assay [2] has as its system HT-29.
Assay [3] relates to KM12.
In assay [4] the test system is HCT-116.
In assay [5] the test system is HCT-15.
The test system of assay [6] is UACC-62.
For assay [7], the system named is BT-549.
Assay [8] deals with EKVX.
For assay [9], the system named is NCI-H522.
The subject of assay [10] is A498.
For assay [11], the system named is M14.
In assay [12] the test system is SF-295.
The test system of assay [13] is NCI-H460.
Assay [14] concerns Hs-578T.
The test system of assay [15] is MDA-N.
Assay [16] has as its system A549.
Assay [17] has as its system OVCAR-8.
Assay [18] concerns SW-620.
Assay [19] has as its system OVCAR-3.
Assay [20] has as its system HCC 2998.

SMILES strings stand for the structures.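 Cultured in 96-well plates, cells were exposed to test compound for 48 hours across five concentrations. GI50 is the concentration that inhibits growth by half.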 Calls of active or inactive are those of the source. Cut-off read from the data, not from the text of the source: active = GI50 up to about 1.1 µM and inactive = higher.

As for `O=C(O)C1C2OC(C(Br)C2Br)C1C(=O)O` (stereo not given), the GI50 in [1] is > 100 µM (inactive); in assay [2], > 100 µM (inactive); in assay [3], > 100 µM (inactive); in [4], > 100 µM (inactive); in assay [5], over 100 µM; in [6], > 100 µM (inactive). For the same compound, the GI50 in assay [7], in [8], in assay [9], in [10], in [11] and in assay [12] was > 100 µM (inactive) each time. In addition, the GI50 is > 100 µM (inactive) in assay [13]; 24.7 µM (inactive) in [14]; > 100 µM (inactive) in assay [15]; > 100 µM (inactive) in assay [16]; > 100 µM (inactive) in assay [17]; > 100 µM (inactive) in [18]. Besides, the GI50 in [19] is > 100 µM (inactive).
For the compound `CN1CCCC(OC(=O)c2cc3cc(CCl)ccc3oc2=O)C1` (stereo not given), the GI50 is 18.3 µM (inactive) in assay [1]; 19.5 µM (inactive) in assay [2]; 24 µM (inactive) in [3]; 19.2 µM (inactive) in assay [4]; 19.2 µM in assay [5]; 17.3 µM (inactive) in assay [6]. Further, the GI50 in assay [7] is 21 µM (inactive); in assay [8], 31.2 µM (inactive); in assay [9] it was 15.9 µM (inactive); in assay [11], 14.8 µM (inactive); in assay [12], 25.2 µM (inactive); in assay [20] it was 18.3 µM (inactive). For the same compound, the GI50 is 19.1 µM (inactive) in assay [13]; 21.9 µM (inactive) in [14]; 18.2 µM (inactive) in assay [15]; 29.8 µM (inactive) in assay [16]; 28.8 µM (inactive) in assay [17]; 22.7 µM (inactive) in assay [18]. Also, the GI50 in assay [19] was 14.2 µM (inactive).
As to `COC(=O)CSC1CC(=O)c2c(Cl)sc(Cl)c21` (stereo not given), the GI50 in assay [1] was > 100 µM (inactive); in assay [2], > 100 µM (inactive); in assay [3], > 100 µM (inactive); in assay [4] it was > 100 µM (inactive); in [5], over 100 µM; in [6] it was > 100 µM (inactive). The GI50 in assay [7], in assay [8], in [9], in assay [11], in [12] and in [20] was > 100 µM (inactive) in each case. Besides, the GI50 in assay [13], in assay [14], in assay [15], in [16], in [17] and in assay [18] was > 100 µM (inactive) throughout.
With `O=c1[nH]nc(-c2ccccc2)n1/N=C/c1c(O)ccc2ccccc12`, the GI50 was 37.8 µM (inactive) in [1]; 86.5 µM (inactive) in [2]; 6.75 µM (inactive) in assay [3]; 30 µM (inactive) in assay [4]; 42.6 µM in assay [5]; 54.8 µM (inactive) in [6]. Moreover, the GI50 in assay [7] was 45.7 µM (inactive); in assay [8] it was > 100 µM (inactive); in [9], 91.2 µM (inactive); in assay [11] it was 93.8 µM (inactive); in [12], 29 µM (inactive); in assay [20] it was 28.4 µM (inactive). Also, the GI50 was 14.1 µM (inactive) in [14]; 73.6 µM (inactive) in assay [15]; 24.9 µM (inactive) in assay [16]; 48.6 µM (inactive) in [17]; 37.8 µM (inactive) in assay [18]; 17.3 µM (inactive) in assay [19].
`C=CCSc1nn(CC=C)cc2ncnc1-2`: the GI50 in [1] is > 100 µM (inactive); in [2] it was > 100 µM (inactive); in assay [3], > 100 µM (inactive); in [4] it was > 100 µM (inactive); in assay [5], over 100 µM; in [6], > 100 µM (inactive). Besides, the GI50 in assay [7], in [8], in assay [10], in assay [11], in assay [12] and in [13] was > 100 µM (inactive) in each case. Further, the GI50 in assay [14], in [15], in [16], in assay [17], in assay [18] and in [19] was > 100 µM (inactive) each time.
For `[N-]=[N+]=C(C(=O)N1CCCC1=O)S(=O)(=O)c1ccccc1`, the GI50 was > 100 µM (inactive) in assay [1]; > 10 µM (inactive) in [2]; > 100 µM (inactive) in assay [3]; 80.4 µM (inactive) in assay [4]; 51.9 µM in [5]; 70.6 µM (inactive) in assay [6]. The GI50 in assay [7] was > 100 µM (inactive); in assay [8] it was > 100 µM (inactive); in [9], 30.9 µM (inactive); in [11], 91.2 µM (inactive); in assay [12], > 100 µM (inactive); in assay [20] it was > 100 µM (inactive). Also, the GI50 in [13] was 39 µM (inactive); in [14], 29.4 µM (inactive); in assay [15], 44 µM (inactive); in assay [16], > 100 µM (inactive); in assay [17], > 100 µM (inactive); in assay [18], > 100 µM (inactive). Moreover, the GI50 in assay [19] is 76 µM (inactive).
Regarding `CCOC(=O)Cc1csc2[n+]1C(=O)/C(=C\c1cccc(Cl)c1Cl)S2`, the GI50 in assay [1] is 13.3 µM (inactive); in [2] it was 21.8 µM (inactive); in [3], 15.4 µM (inactive); in [4] it was 12.7 µM (inactive); in assay [5], 16.2 µM; in assay [6] it was 4.94 µM (inactive). The GI50 in [7] was 17.6 µM (inactive); in assay [8] it was 17.2 µM (inactive); in assay [9], 14.8 µM (inactive); in assay [11] it was 26.9 µM (inactive); in assay [12], 15.3 µM (inactive); in [20], 17.7 µM (inactive). Moreover, the GI50 was 14.9 µM (inactive) in [13]; 29.5 µM (inactive) in assay [14]; 17.7 µM (inactive) in [15]; 14.8 µM (inactive) in assay [16]; 19.5 µM (inactive) in assay [17]; 18.6 µM (inactive) in assay [18]. Besides, in assay [19], the GI50 is 7.05 µM (inactive).
Regarding `COc1cc2nc(Nc3cccc(Br)c3)nc(Nc3cccc(Br)c3)c2cc1OC`, the GI50 in assay [1] is 20.4 µM (inactive); in assay [2], 18.7 µM (inactive); in [3] it was 18.9 µM (inactive); in [4], 17.6 µM (inactive); in assay [5], 17.7 µM; in [6], 18.8 µM (inactive). The GI50 in assay [7] was 17 µM (inactive); in assay [8], 19.1 µM (inactive); in assay [9], 16.7 µM (inactive); in [11], 18.2 µM (inactive); in assay [12], 17.7 µM (inactive); in assay [20], 23.6 µM (inactive). Besides, the GI50 in [13] was 24.3 µM (inactive); in assay [14], 19.8 µM (inactive); in [15], 18.7 µM (inactive); in assay [16], 17.3 µM (inactive); in assay [17] it was 16.6 µM (inactive); in [18], 24.2 µM (inactive). For the same compound, the GI50 in [19] is 16.6 µM (inactive).
On to `O=C1Nc2ccccc2/C1=C1/Nc2ccccc2/C1=N\OCCNCC(O)C(O)C(O)C(O)CO` (stereo not given), for which the GI50 was 10.2 µM (inactive) in assay [1]; 16.9 µM (inactive) in assay [2]; 5.14 µM (inactive) in [3]; 13.4 µM (inactive) in assay [4]; over 50 µM in assay [5]; 8.93 µM (inactive) in assay [6]. For the same compound, the GI50 in [7] was 13.9 µM (inactive); in assay [8], 30.3 µM (inactive); in [9], 13.4 µM (inactive); in assay [11] it was 20.9 µM (inactive); in [12] it was 30.7 µM (inactive); in assay [20], 11.8 µM (inactive). In addition, the GI50 was 18.1 µM (inactive) in [13]; 13.4 µM (inactive) in assay [14]; 9.89 µM (inactive) in assay [15]; 44.4 µM (inactive) in [16]; 18.5 µM (inactive) in assay [17]; 15.9 µM (inactive) in assay [18]. Moreover, the GI50 in [19] is 11.6 µM (inactive).
In the case of `CCCCOC(=O)C(=O)C(CC(CC)C(=O)c1ccccc1)C(=O)C=C(C)C` (stereo not given), the GI50 is > 100 µM (inactive) in [1]; > 100 µM (inactive) in assay [3]; > 100 µM (inactive) in assay [4]; over 100 µM in assay [5]; > 100 µM (inactive) in assay [6]; > 100 µM (inactive) in [7]. Moreover, the GI50 in assay [8], in assay [9], in assay [11], in assay [12], in assay [20] and in [13] was > 100 µM (inactive) in each case. For the same compound, the GI50 in [14], in assay [15], in [16], in [17], in assay [18] and in assay [19] was > 100 µM (inactive) each time.
For the compound `COc1ccc(N2C(=O)C3c4[nH]c5ccccc5c4C4CCC(C(C)(C)C)CC4C3C2=O)c(C)c1` (stereo not given), the GI50 in [1] is > 100 µM (inactive); in assay [2], > 100 µM (inactive); in assay [3] it was > 100 µM (inactive); in assay [4], > 100 µM (inactive); in assay [5] it was over 100 µM; in assay [6] it was > 100 µM (inactive). The GI50 in assay [7], in assay [8], in assay [9], in assay [11], in assay [12] and in assay [20] was > 100 µM (inactive) in each case. In addition, the GI50 in [13] is > 100 µM (inactive); in assay [14], 51.3 µM (inactive); in assay [15] it was > 100 µM (inactive); in assay [16] it was > 100 µM (inactive); in [17] it was > 100 µM (inactive); in [18] it was > 100 µM (inactive). Moreover, the GI50 in [19] is > 100 µM (inactive).

(Values after ChEMBL document CHEMBL1201862, “PubChem BioAssay data set” (2004).)
